Among the test systems are ACHN renal; BT-549 breast; UACC-257 melanoma; HOP-62 NSCLC; DU-145 prostate; MDA-MB-231 breast; A549 NSCLC; NCI-H226 lung; OVCAR-4 ovarian; CAKI-1 renal; MDA-N; PC-3 prostate; T-47D breast; OVCAR-3 ovarian; SF-268 CNS; SR leukemia; SK-OV-3 ovarian; HCT-116 colon; SNB-78 CNS; KM20L2 colon.
What all share (assay): NCI anticancer screen, dose series, 48 h

Among the data in PubChem BioAssay (NCI) are TGI values, retold here.

Molecules are shown by their SMILES.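 Each compound was tested at five concentrations against cells in 96-well plates for 48 hours. TGI denotes the concentration required for complete inhibition of growth.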

With `C=CCn1c(=O)ccn(COCCO)c1=O`, the TGI in the experiment with ACHN renal, with BT-549 breast, in the experiment with UACC-257 melanoma, with HOP-62 NSCLC, in the experiment with DU-145 prostate and in the experiment on MDA-MB-231 breast was > 100 µM throughout. Moreover, the TGI with A549 NSCLC, with NCI-H226 lung, in the experiment on OVCAR-4 ovarian, with CAKI-1 renal, in the experiment with MDA-N and with PC-3 prostate was > 100 µM in each case. In addition, the TGI in the experiment with T-47D breast, with OVCAR-3 ovarian, with SF-268 CNS and in the experiment with SR leukemia was > 100 µM throughout.
For `O=C(N=Nc1cc(Cl)ccc1Cl)NNc1cc(Cl)ccc1Cl`, the TGI with HOP-62 NSCLC was 40.7 µM; in the experiment on DU-145 prostate it was > 100 µM; with SK-OV-3 ovarian, 63 µM; in the experiment on MDA-MB-231 breast, 40.1 µM; with HCT-116 colon, 33.6 µM; with CAKI-1 renal it was 43.7 µM. Further, the TGI is 84.4 µM in the experiment on MDA-N; 22.8 µM with PC-3 prostate; > 100 µM with T-47D breast; 32.7 µM with OVCAR-3 ovarian; > 100 µM in the experiment with SR leukemia.
With `O=S(=O)(O)c1cc2ccc1/C=C\c1ccc(cc1S(=O)(=O)O)N=Nc1ccc(c(S(=O)(=O)O)c1)/C=C\c1ccc(cc1S(=O)(=O)O)N=N2`, the TGI in the experiment with SNB-78 CNS, in the experiment on UACC-257 melanoma, with HOP-62 NSCLC, in the experiment with SK-OV-3 ovarian, in the experiment on A549 NSCLC and in the experiment with NCI-H226 lung was > 100 µM throughout. The TGI in the experiment with OVCAR-4 ovarian, in the experiment on HCT-116 colon, with OVCAR-3 ovarian, in the experiment on KM20L2 colon and with SF-268 CNS was > 100 µM throughout.
Turning to `O=c1ccc2cc3ccc4cccc5ccc(c2o1)c3c45`, the TGI in the experiment with ACHN renal is 34 µM; with SNB-78 CNS it was > 100 µM; with SK-OV-3 ovarian it was 32.6 µM; in the experiment on NCI-H226 lung, 58.3 µM; in the experiment with CAKI-1 renal it was > 100 µM; with KM20L2 colon it was > 100 µM. The TGI in the experiment on SF-268 CNS was > 100 µM.
`COc1ccc2nc3cc(Cl)ccc3c(NCCCNCCCNc3c4ccc(Cl)cc4nc4ccc(OC)cc34)c2c1`: the TGI with ACHN renal turned out to be 0.174 µM; in the experiment with BT-549 breast it was 1.67 µM; in the experiment on UACC-257 melanoma it was 1.76 µM; with HOP-62 NSCLC, 0.14 µM; with DU-145 prostate it was 0.156 µM; in the experiment on SK-OV-3 ovarian, 0.384 µM. The TGI was found to be 0.0555 µM in the experiment with MDA-MB-231 breast; 0.165 µM with A549 NSCLC; 0.177 µM in the experiment on NCI-H226 lung; 0.173 µM in the experiment with MDA-N; 0.182 µM with PC-3 prostate; 1.23 µM in the experiment on T-47D breast. The TGI is 0.61 µM in the experiment on OVCAR-3 ovarian and 2.73 µM in the experiment with SR leukemia.
In the case of `COc1nc(C#CCC(C)O)nc(OC)n1` (configuration not stated), the TGI was 33.3 µM in the experiment with ACHN renal; 36 µM in the experiment on BT-549 breast; > 100 µM in the experiment with UACC-257 melanoma; 36.8 µM in the experiment on HOP-62 NSCLC; 52.8 µM with DU-145 prostate; > 100 µM in the experiment with SK-OV-3 ovarian. Besides, the TGI with MDA-MB-231 breast is 52 µM; in the experiment on A549 NSCLC, 52.9 µM; in the experiment with OVCAR-4 ovarian, 36.2 µM; in the experiment on HCT-116 colon, 43.6 µM; in the experiment with CAKI-1 renal it was 31.9 µM; in the experiment on MDA-N, > 100 µM. Besides, the TGI in the experiment on PC-3 prostate is 54.6 µM; in the experiment with T-47D breast, > 100 µM; with OVCAR-3 ovarian, 47.9 µM; in the experiment on SF-268 CNS, 69.6 µM; in the experiment with SR leukemia, > 100 µM.
As to `CCOC(=O)/C=C(\C)c1ccc(C)cc1C`, the TGI in the experiment on ACHN renal, in the experiment on SNB-78 CNS, in the experiment on UACC-257 melanoma, in the experiment with A549 NSCLC, in the experiment with NCI-H226 lung and with OVCAR-4 ovarian was > 100 µM throughout. Moreover, the TGI in the experiment on HCT-116 colon is > 100 µM; in the experiment on CAKI-1 renal, > 100 µM; with KM20L2 colon, > 100 µM; in the experiment with SF-268 CNS, > 100 µM; with SR leukemia, 37.3 µM.
